Measured values: patent US8685974B2 (Bayer CropScience AG, priority 2009, dated 2014)
Where a name gives a salt, the structure may show the parent alone.

Assay: physchem

## CCC[CH2][Sn]([CH2]CCC)([CH2]CCC)[c]1c(-c2ccncc2)cnn1C1CCCCO1 (stereo not shown) [4-[1-(tetrahydro-2H-pyran-2-yl)-5-(tributylstannyl)-1H-pyrazol-4-yl]pyridine]
pH 2.7
  log p: 4.89

## Clc1ccc(-c2nn(C3CC3)cc2-c2ccncc2)s1 [4-[1-Cyclopropyl-3-(5-chloro-2-thienyl)-1H-pyrazol-4-yl]pyridine]
pH 2.7
  log p: 1.62

## CCn1cc(-c2ccncc2)c(-c2cccs2)n1 [4-[1-Ethyl-3-(2-thienyl)-1H-pyrazol-4-yl]pyridine]
pH 2.7
  log p: 0.75

## CC(C)Cn1cc(-c2ccncc2)c(-c2ccc(C#N)s2)n1 [4-[1-Isobutyl-3-(5-cyano-2-thienyl)-1H-pyrazol-4-yl]pyridine]
pH 2.7
  log p: 1.74

## CC(C)n1cc(-c2ccncc2)c(-c2ccc(Cl)s2)n1 [4-[1-Isopropyl-3-(5-chloro-2-thienyl)-1H-pyrazol-4-yl]pyridine]
pH 2.7
  log p: 1.82

## CC(C)n1cc(-c2ccncc2)c(-c2ccc(F)s2)n1 [4-[1-Isopropyl-3-(5-fluoro-2-thienyl)-1H-pyrazol-4-yl]pyridine]
pH 2.7
  log p: 1.53

## CSc1ccc(-c2nn(C(C)C)cc2-c2ccncc2)s1 [4-[1-Isopropyl-3-(5-methylsulfanyl-2-thienyl)-1H-pyrazol-4-yl]pyridine]
pH 2.7
  log p: 1.79

## CC(C)n1ncc(-c2ccncc2)c1-c1ccc(Cl)s1 [4-[1-Isopropyl-5-(5-chloro-2-thienyl)-1H-pyrazol-4-yl]pyridine]
pH 2.7
  log p: 1.7

## CC(C)n1ncc(-c2ccncc2)c1-c1ccc(F)s1 [4-[1-Isopropyl-5-(5-fluoro-2-thienyl)-1H-pyrazol-4-yl]pyridine]
pH 2.7
  log p: 1.51

## CSc1ccc(-c2c(-c3ccncc3)cnn2C(C)C)s1 [4-[1-Isopropyl-5-(5-methylsulfanyl-2-thienyl)-1H-pyrazol-4-yl]pyridine]
pH 2.7
  log p: 1.78

## CC(C)Cn1cc(-c2ccncc2)c(-c2ccc(Br)s2)n1 [4-[1-isobutyl-3-(5-bromo-2-thienyl)-1H-pyrazol-4-yl]pyridine]
pH 2.7
  log p: 2.04

## CCC(C)n1cc(-c2ccncc2)c(-c2cc(Cl)cs2)n1 (stereo not shown) [4-[1-sec-Butyl-3-(4-chloro-2-thienyl)-1H-pyrazol-4-yl]pyridine]
pH 2.7
  log p: 1.83

## CCC(C)n1cc(-c2ccnc(C#CC3CC3)c2)c(-c2ccc(Cl)s2)n1 (stereo not shown) [4-[1-sec-Butyl-3-(5-chloro-2-thienyl)-1H-pyrazol-4-yl]-2-(cyclopropylethynyl)pyridine]
pH 2.7
  log p: 4.56

## CCC(C)n1cc(-c2ccnc(C(=O)NC(C)C)c2)c(-c2ccc(Cl)s2)n1 (stereo not shown) [4-[1-sec-Butyl-3-(5-chloro-2-thienyl)-1H-pyrazol-4-yl]-N-isopropylpyridine-2-carboxamide]
pH 2.7
  log p: 4.82

## CCC(C)n1cc(-c2ccncc2)c(-c2ccc(Cl)s2)n1 (stereo not shown) [4-[1-sec-Butyl-3-(5-chloro-2-thienyl)-1H-pyrazol-4-yl]pyridine]
pH 2.7
  log p: 2.1

## CCC(C)n1ncc(-c2ccncc2)c1-c1ccc(Cl)s1 (stereo not shown) [4-[1-sec-Butyl-5-(5-chloro-2-thienyl)-1H-pyrazol-4-yl]pyridine]
pH 2.7
  log p: 1.94

## CCC(C)n1cc(-c2ccncc2)c(-c2ccc(F)s2)n1 (stereo not shown) [4-[1-sec-butyl-3-(5-fluoro-2-thienyl)-1H-pyrazol-4-yl]pyridine]
pH 2.7
  log p: 1.78

## CCC(C)n1ncc(-c2ccncc2)c1-c1ccc(F)s1 (stereo not shown) [4-[1-sec-butyl-5-(5-fluoro-2-thienyl)-1H-pyrazol-4-yl]pyridine]
pH 2.7
  log p: 1.84

## Brc1ccc(-c2n[nH]cc2-c2ccncc2)s1 [4-[3-(5-Bromo-2-thienyl)-1H-pyrazol-4-yl]pyridine]
pH 2.7
  log p: 0.94

## CSc1nccc(-c2cn(C(C)C)nc2-c2ccc(Cl)s2)n1 [4-[3-(5-Chloro-2-thienyl)-1-isopropyl-1H-pyrazol-4-yl]-2-(methylsulfanyl)pyrimidine]
pH 2.7
  log p: 4.44

## CC(C)n1cc(-c2ccnc(S(C)(=O)=O)n2)c(-c2ccc(Cl)s2)n1 [4-[3-(5-Chloro-2-thienyl)-1-isopropyl-1H-pyrazol-4-yl]-2-(methylsulfonyl)pyrimidine]
pH 2.7
  log p: 3.15

## CC(C)Nc1nccc(-c2c[nH]nc2-c2ccc(Cl)s2)n1 [4-[3-(5-Chloro-2-thienyl)-1H-pyrazol-4-yl]-2-(isopropylamino)pyrimidine]
pH 2.7
  log p: 1.79

## CSc1nccc(-c2c[nH]nc2-c2ccc(Cl)s2)n1 [4-[3-(5-Chloro-2-thienyl)-1H-pyrazol-4-yl]-2-(methylsulfanyl)pyrimidine]
pH 2.7
  log p: 2.78

## CC#Cc1[nH]nc(-c2ccc(Cl)s2)c1-c1ccncc1 [4-[3-(5-Chloro-2-thienyl)-5-(prop-1-yn-1-yl)-1H-pyrazol-4-yl]pyridine]
pH 2.7
  log p: 1.44

## Clc1ccc(-c2n[nH]c(C3CC3)c2-c2ccncc2)s1 [4-[3-(5-Chloro-2-thienyl)-5-cyclopropyl-1H-pyrazol-4-yl]pyridine]
pH 2.7
  log p: 1.29

## CCC(C)n1nc(-c2ccc(Cl)s2)c(-c2ccncc2)c1F (stereo not shown) [4-[3-(5-Chloro-2-thienyl)-5-fluoro-1-secbutyl-1H-pyrazol-4-yl]pyridine]
pH 2.7
  log p: 2.61

## CCC(C)n1nc(-c2ccc(Cl)s2)c(-c2ccncc2)c1SC (stereo not shown) [4-[3-(5-Chloro-2-thienyl)-5-methylsulfanyl-1-secbutyl-1H-pyrazol-4-yl]pyridine]
pH 2.7
  log p: 3.35

## Fc1ccc(-c2n[nH]cc2-c2ccncc2)s1 [4-[3-(5-Fluoro-2-thienyl)-1H-pyrazol-4-yl]pyridine]
pH 2.7
  log p: 0.57

## CC(C)Cn1cc(-c2ccnc3ccccc23)c(-c2ccc(Cl)s2)n1 [4-[3-(5-chloro-2-thienyl)-1-isobutyl-1H-pyrazol-4-yl]quinoline]
pH 2.7
  log p: 3.69

## Clc1ccc(-c2n[nH]cc2-c2ccncc2)s1 [4-[3-(5-chloro-2-thienyl)-1H-pyrazol-4-yl]pyridine]
pH 2.7
  log p: 0.9

## FC(F)(F)c1ccc(-c2n[nH]cc2-c2ccncc2)s1 [4-[3-(5-trifluoromethyl-2-thienyl)-1H-pyrazol-4-yl]pyridine hydrochloride]
pH 2.7
  log p: 1.34

## CC(C)n1nc(C2CC2)c(-c2ccncc2)c1-c1ccc(Cl)s1 [4-[3-Cyclopropyl-1-isopropyl-5-(5-chloro-2-thienyl)-1H-pyrazol-4-yl]pyridine]
pH 2.7
  log p: 2.44

## Cc1n[nH]c(-c2ccc(Cl)s2)c1-c1ccncc1 [4-[5-(5-Chloro-2-thienyl)-3-methyl-1H-pyrazol-4-yl]pyridine]
pH 2.7
  log p: 1.07

## Clc1ccc(-c2n[nH]c(Br)c2-c2ccncc2)s1 [4-[5-Bromo-3-(5-chloro-2-thienyl)-1H-pyrazol-4-yl]pyridine]
pH 2.7
  log p: 1.4

## CCC(C)n1nc(-c2ccc(Cl)s2)c(-c2ccncc2)c1Cl (stereo not shown) [4-[5-Chloro-1-secbutyl-3-(5-chloro-2-thienyl)-1H-pyrazol-4-yl]pyridine]
pH 2.7
  log p: 3.44

## CC(C)n1nc(-c2ccc(Cl)s2)c(-c2ccncc2)c1C1CC1 [4-[5-Cyclopropyl-1-isopropyl-3-(5-chloro-2-thienyl)-1H-pyrazol-4-yl]pyridine]
pH 2.7
  log p: 2.44

## CC(C)n1nccc1-c1cc(Br)c(Br)s1 [5-(4,5-Dibromo-2-thienyl)-1-isopropyl-1H-pyrazole]
pH 2.7
  log p: 4.44

## CCn1nccc1-c1cc(Br)cs1 [5-(4-Bromo-2-thienyl)-1-ethyl-1H-pyrazole]
pH 2.7
  log p: 2.92

## CC(C)n1nccc1-c1cc(Br)cs1 [5-(4-Bromo-2-thienyl)-1-isopropyl-1H-pyrazole]
pH 2.7
  log p: 3.44

## CCn1ncc(I)c1-c1cc(Cl)cs1 [5-(4-Chloro-2-thienyl)-1-ethyl-4-iodo-1H-pyrazole]
pH 2.7
  log p: 3.76

## CCCn1nccc1-c1cc(C)cs1 [5-(4-Methyl-2-thienyl)-1-propyl-1H-pyrazole]
pH 2.7
  log p: 3.1

## CC(C)Cn1cc(-c2cc(N)ncn2)c(-c2ccc(Cl)s2)n1 [6-[3-(5-chloro-2-thienyl)-1-isobutyl-1H-pyrazol-4-yl]pyrimidin-4-amine]
pH 2.7
  log p: 1.97

## CCn1cc(-c2ccncc2)c(-c2cccs2)n1 [Example 148, 4-[1-Ethyl-3-(2-thienyl)-1H-pyrazol-4-yl]pyridine]
pH 2.7
  chromatographic logP: 0.75
pH 7.8
  chromatographic logP: 2.06

## CCC(=O)Nc1cc(-c2cn(CC)nc2-c2cccs2)ccn1 [Example 149, N-{4-[1-Ethyl-3-(2-thienyl)-1H-pyrazol-4-yl]pyridin-2-yl}propanamide]
pH 2.7
  chromatographic logP: 1.65
pH 7.8
  chromatographic logP: 2.26

## CC(=O)N(C(C)=O)c1cc(-c2cn(C(C)C)nc2-c2ccc(Cl)s2)ccn1 [N-Acetyl-N-{4-[3-(5-chloro-2-thienyl)-1-isopropyl-1H-pyrazol-4-yl]pyridin-2-yl}acetamide]
pH 2.7
  log p: 3.33

## CC(=O)N(C(C)=O)c1nccc(-c2cn(C(C)C)nc2-c2ccc(Cl)s2)n1 [N-Acetyl-N-{4-[3-(5-chloro-2-thienyl)-1-isopropyl-1H-pyrazol-4-yl]pyrimidin-2-yl}acetamide]
pH 2.7
  log p: 3.33

## CC(C)n1cc(-c2ccnc(NCc3ccccc3)n2)c(-c2ccc(Cl)s2)n1 [N-Benzyl-4-[3-(5-chloro-2-thienyl)-1-isopropyl-1H-pyrazol-4-yl]pyrimidin-2-amine]
pH 2.7
  log p: 3.81

## CC(C)Nc1nccc(-c2cn(C(C)C)nc2-c2ccc(Cl)s2)n1 [N-Isopropyl-4-[3-(5-chloro-2-thienyl)-1-isopropyl-1H-pyrazol-4-yl]pyrimidin-2-amine]
pH 2.7
  log p: 2.82

## CCC(=O)Nc1cc(-c2cn(CC)nc2-c2cccs2)ccn1 [N-{4-[1-Ethyl-3-(2-thienyl)-1H-pyrazol-4-yl]pyridin-2-yl}propanamide]
pH 2.7
  log p: 1.65

## CCC(C)n1cc(-c2ccnc(NC(C)=O)c2)c(-c2ccc(Cl)s2)n1 (stereo not shown) [N-{4-[1-sec-butyl-3-(5-chloro-2-thienyl)-1H-pyrazol-4-yl]pyridin-2-yl}acetamide]
pH 2.7
  log p: 2.94

## CC(=O)Nc1nccc(-c2cn(C(C)C)nc2-c2ccc(Cl)s2)n1 [N-{4-[3-(5-Chloro-2-thienyl)-1-isopropyl-1H-pyrazol-4-yl]pyrimidin-2-yl}acetamide]
pH 2.7
  log p: 2.59

## CC(=O)Nc1cc(-c2cn(CC(C)C)nc2-c2ccc(Cl)s2)cc[n+]1[O-] [N-{4-[3-(5-chloro-2-thienyl)-1-isobutyl-1H-pyrazol-4-yl]-1-oxidopyridin-2-yl}acetamide]
pH 2.7
  log p: 2.86

## CC(C)Cn1cc(-c2ccnc(N(C(=O)C3CC3)C(=O)C3CC3)c2)c(-c2ccc(Cl)s2)n1 [N-{4-[3-(5-chloro-2-thienyl)-1-isobutyl-1H-pyrazol-4-yl]pyridin-2-yl}-N-(cyclopropylcarbonyl)cyclopropanecarboxamide]
pH 2.7
  log p: 4.75
